Laboratory results: patent publication US20100062067A1, “COMPOSITIONS COMPRISING MACROMOLECULAR ASSEMBLIES OF LIPID AND SURFACTANT” (MALVERN COSMECEUTICS LIMITED, priority 2006, published 2010)
Starred links: 1 amine or outer side, 2 acyl side, 3 side chain; linkers in the order of their positions; H or OH if unused. Positions of bridges follow the written chain, without caps; N, C: chain ends. Non-standard residues stand in square brackets, D forms with d. Residues, ends and D or L forms follow the SMILES beside them. X1 = CC(C)CCCCCCCCC[C@H](CC(=O)[*:1])O[*:2]

assay: Turbidity of surfactant/lipid compositions, formation of macromolecular complexes (Example 1); assay type: physicochemical; settings: 2.5% surfactant, 1% 90H lipid, ca. 0.01% S LPC co-surfactant (as 0.05% SL 80-3) in water, room temperature
Method: Briefly, to the appropriate volume of warm water (ca. 60° C.), SL 80-3 was added. […] 90H was then added gradually, with heating and stirring maintained throughout and for a further 45 minutes after completion.
After mixing the solution was stirred and heated to around 60-70° C.
The required quantity of warm lipid emulsion was slowly added to the warm surfactant solution while stirring with the temperature maintained.

Compound	Average Turbidity
O=C(O)C(O)c1ccccc1 (racemic) [Mandelic Acid, DL-Mandelic acid]	>150 FNU
CC(C)CCCCCCCCC[C@@H]1CC(=O)N[C@@H](CCC(=O)O)C(=O)N[C@@H](CC(C)C)C(=O)N[C@H](CC(C)C)C(=O)N[C@@H](C(C)C)C(=O)N[C@@H](CC(=O)O)C(=O)N[C@H](CC(C)C)C(=O)N[C@@H](CC(C)C)C(=O)O1 [Aminofect, Surfactin] (EL[dL]VD[dL]L; linker N-C via X1)	13.16 FNU
O=C(O)c1ccccc1 [Benzoic Acid, Benzoic acid]	>150 FNU
CCCCCCCCCC(=O)O [Capric Acid, Decanoic acid]	>150 FNU
CCCCCC(=O)O [Caproic Acid, Hexanoic acid]	>150 FNU

assay: not given; settings: Surf. Brij 35P 2.5%, lipid 90H 1.0%, co-surf. S LPC ca. 0.01% (as SL 80-3 0.05%), active agent 0.10%

Compound	Turbidity (FNU)
CC(C)CCC[C@@H](C)[C@H]1CC[C@H]2C3=CC=C4C[C@@H](O)CC[C@]4(C)[C@H]3CC[C@]12C [7-dehydrocholesterol]	58.4 FNU
CCCCCCCCCCCCCCCC(=O)OC[C@H](O)[C@H]1OC(=O)C(O)=C1O [Ascorbyl palmitate]	72.4 FNU
COc1ccc(C(=O)CC(=O)c2ccc(C(C)(C)C)cc2)cc1 [Avobenzene]	52.9 FNU
CCCCC(=O)O[C@]1(C(=O)CO)[C@@H](C)C[C@H]2[C@@H]3CCC4=CC(=O)C=C[C@]4(C)[C@@]3(F)[C@@H](O)C[C@@]21C [Betamethasone 17-valerate]	19.24 FNU
CC12CCC(CC1=O)C2(C)C (centres unmarked) [Camphor (S-Black)]	29.70 FNU
CC(C)CCC[C@@H](C)[C@H]1CC[C@H]2[C@@H]3CC=C4C[C@@H](OS(=O)(=O)O)CC[C@]4(C)[C@H]3CC[C@]12C [Cholesterol sulphate]	9.48 FNU
CC(C)CCC[C@@H](C)[C@H]1CC[C@H]2[C@@H]3CC=C4C[C@@H](O)CC[C@]4(C)[C@H]3CC[C@]12C [Cholesterol]	10.91 FNU
CCC(=O)O[C@]1(C(=O)CCl)[C@@H](C)C[C@H]2[C@@H]3CCC4=CC(=O)C=C[C@]4(C)[C@@]3(F)[C@@H](O)C[C@@]21C [Clobetasol Propionate]	23.3 FNU
Clc1ccccc1C(c1ccccc1)(c1ccccc1)n1ccnc1 [Clotrimazole]	10.4 FNU
O=C(CCCCc1ccc2c(c1)OCO2)N1CCCCC1 [Cosmoperine]	6.38 FNU
O=C1OC2(c3cc(Br)c(O)c(Br)c3Oc3c2cc(Br)c(O)c3Br)c2c(Cl)c(Cl)c(Cl)c(Cl)c21 [D&C Red No. 27]	16.44 FNU
O=C(O)Cc1ccccc1Nc1c(Cl)cccc1Cl [Diclofenac]	14.39 FNU
COc1ccc(C(=O)c2ccccc2)c(O)c1 [Eusolex 4360]	10.02 FNU
CCCC(=O)O[C@]1(C(=O)CO)CC[C@H]2[C@@H]3CCC4=CC(=O)CC[C@]4(C)[C@H]3[C@@H](O)C[C@@]21C [Hydrocortisone-17 butyrate]	55.9 FNU
CC1=CCC(O)(C(C)C)CC1 (centres unmarked) [Melaleucol]	19.4 FNU
CC(Cc1ccc(O)c(O)c1)C(C)Cc1ccc(O)c(O)c1 (centres unmarked) [NDGA]	40.5 FNU
COc1ccc2cc([C@H](C)C(=O)O)ccc2c1 [Naproxen]	14.99 FNU
NC[C@@H]1O[C@H](O[C@H]2[C@@H](O)[C@H](O[C@@H]3[C@@H](O)[C@H](N)C[C@H](N)[C@H]3O[C@H]3O[C@H](CN)[C@@H](O)[C@H](O)[C@H]3N)O[C@@H]2CO)[C@H](N)[C@@H](O)[C@@H]1O.O=S(=O)(O)O [Neomycin sulphate]	19.76 FNU
C[C@@H]1[C@H](O)[C@@H](C)/C=C/C=C/CC/C=C/C=C/C=C/C=C/C(O[C@H]2O[C@H](C)[C@@H](O)[C@H](N)[C@@H]2O)CC2O[C@](O)(CC(O)C(O)CCC(O)CC(O)CC(O)CC(=O)O[C@H]1C)CC(O)C2C(=O)O (some centres unmarked) [Nystatin]	21.3 FNU
Nc1ccc(C(=O)O)cc1 [PABA]	8.81 FNU
O=C(/C=C/c1ccc(O)c(O)c1)O[C@H](Cc1ccc(O)c(O)c1)C(=O)O [Rosmarinic acid (90%)]	31.5 FNU
CCCCCCCCCCCCCCCCCCOC(=O)[C@@]1(C)CC[C@]2(C)CC[C@]3(C)C(=CC(=O)[C@@H]4[C@@]5(C)CC[C@H](O)C(C)(C)[C@@H]5CC[C@]43C)[C@@H]2C1 [Stearyl glycrrhetinate]	88.9 FNU

same assay, conditions: Surf. Brij 35P 2.5%, lipid 90H 1.0%, co-surf. S LPC ca. 0.01% (as SL 80-3 0.05%), active agent 0.20%

Compound	Turbidity (FNU)
COC(=O)[C@@H]1[C@H]2C[C@H]3c4[nH]c5ccccc5c4CCN3C[C@@H]2CC[C@@H]1O.Cl [Yohimbine HCl USP HO]	22.78 FNU

same assay, conditions: Surf. Brij 35P 2.5%, lipid 90H 1.0%, co-surf. S LPC ca. 0.01% (as SL 80-3 0.05%), active agent 0.25%

Compound	Turbidity (FNU)
O=C(OCc1ccccc1)c1cccnc1 [Benzyl nicotinate]	18.84 FNU
CC12CCC(CC1=O)C2(C)C (centres unmarked) [Camphor]	26.80 FNU
C[C@]12CCC(=O)C=C1CC[C@@H]1[C@@H]2[C@@H](O)C[C@@]2(C)[C@H]1CC[C@]2(O)C(=O)CO [Hydrocortisone]	10.00 FNU
Cc1cc(CC(C)CC(C)(C)C)n(O)c(=O)c1.NCCO (centres unmarked) [Octopirox ®]	9.10 FNU
CC1CCC(C(C)C)C(OC(=O)[C@@H]2CCC(=O)N2)C1 (some centres unmarked) [Questice CQ U/A]	46.81 FNU
OCc1cc(C(O)CNCCCCCCOCCCCc2ccccc2)ccc1O (centres unmarked) [Salmeterol xinafoate]	5.49 FNU
C=CCCCCCCCCC(=O)N[C@@H](Cc1ccccc1)C(=O)O [SepiWhite MSH]	10.43 FNU
CC(C)c1c(O)ccc2c1CC[C@H]1C(C)(C)CCC[C@]21C [Totarol ®]	12.89 FNU
COC(=O)[C@@H]1[C@H]2C[C@H]3c4[nH]c5ccccc5c4CCN3C[C@@H]2CC[C@@H]1O.Cl [Yohimbine HCl Crystalline]	9.85 FNU
COC(=O)[C@@H]1[C@H]2C[C@H]3c4[nH]c5ccccc5c4CCN3C[C@@H]2CC[C@@H]1O.Cl [Yohimbine HCl USP]	13.42 FNU

same assay, conditions: Surf. Brij 35P 2.5%, lipid 90H 1.0%, co-surf. S LPC ca. 0.01% (as SL 80-3 0.05%), active agent 0.80%

Compound	Turbidity (FNU)
Cc1cc(CC(C)CC(C)(C)C)n(O)c(=O)c1.NCCO (centres unmarked) [Octopirox ®]	6.91 FNU

same assay, conditions: Surf. Brij 35P 2.5%, lipid 90H 1%, co-surf. S LPC ca. 0.01% (as SL 80-3 0.05%), active agent […]

Compound	Turbidity (FNU)
CC12CCC(/C(=C\c3ccccc3)C1=O)C2(C)C (centres unmarked) [Unisol S-22]	14.59 FNU

same assay, conditions: Surf. Protasorb L-20 2.5%, lipid 90H 1.0%, co-surf. S LPC ca. 0.01% (as SL 80-3 0.05%), active agent 0.10%

Compound	Turbidity (FNU)
Vitamin E	29.60 FNU

same assay, conditions: Surf. Volpo L23 2.5%, lipid 90H 1.0%, co-surf. S LPC ca. 0.01% (as SL 80-3 0.05%), active agent 0.10%

Compound	Turbidity (FNU)
O=C1OC2(c3cc(Br)c(O)c(Br)c3Oc3c2cc(Br)c(O)c3Br)c2c(Cl)c(Cl)c(Cl)c(Cl)c21 [D&C Red No. 27]	21.85 FNU

same assay, conditions: Surf. Volpo L23 2.5%, lipid 90H 1.0%, co-surf. S LPC ca. 0.01% (as SL 80-3 0.05%), active agent 0.25%

Compound	Turbidity (FNU)
Cc1c(C2(c3cc(Br)c(O)c(Br)c3C)OS(=O)(=O)c3ccccc32)cc(Br)c(O)c1Br [Bromocresol Green]	19.40 FNU
Cc1cc(C2CCCCC2)n(O)c(=O)c1 [Ciclopirox olamine, reference compound]	10.85 FNU
Clc1ccc(COC(Cn2ccnc2)c2ccc(Cl)cc2Cl)cc1 (centres unmarked) [Econazole nitrate]	71.50 FNU
CCCCCCCCCCCCOC(=O)[C@@H]1CCC(=O)N1 [Laurydone ®]	61.70 FNU
CCCCCCCCCCCCCCOC(=O)[C@@H]1CCC(=O)N1 [Myristidone ®]	58.60 FNU
